Ends that are not written are not given here.
Legend:
pleural mast cells = assay: Histamine release from purified pleural mast cells; assay type: cell-based, rat
skin mast cells [1] = assay: Skin mast cell activation by CRH in rats treated neonatally with capsaicin; assay type: in vivo, rat; settings: CRH 10^-4 M, neonatal capsaicin
skin mast cells [2] = assay: Ultrastructural analysis of CRH-treated skin mast cells; assay type: in vivo, rat; settings: CRH-injected sites
Source text: The effect of CRH on both vasodilation and mast cell activation was dose-dependent from 10^-4 M-10^-8 M (Table 1).

skin mast cells [3] = assay: Dye (Evan's blue) extravasation after intradermal injection; assay type: in vivo, rat
Description: (§1) 1. For extravasation experiments, male Sprague/Dawley rats, each weighing approximately 350 g (Taconic Farms, Germantown, N.Y.), were anesthetized with a single intraperitoneal injection of 0.5 ml ketamine and 0.5 ml xylazine (20 mg/ml each) and then injected intravenously with 0.1 ml of 1% Evan's blue 60 min prior to treatment.
(§2) 3. The pretreatment solution, when appropriate, was drawn first in the syringe followed by CRH from which it was separated by an air bubble. The pretreatment solution was injected first and was allowed to remain in the skin for 1 min; the needle was then changed, the air bubble ejected and CRH was injected and allowed to stay in the skin for 5 min. The animal was then killed by asphyxiation over CO2 vapor and decapitated; the skin was removed, turned over and photographed.

peritoneal mast cells = assay: Histamine release from purified peritoneal mast cells; assay type: cell-based, rat
skin mast cells [4] = assay: Skin mast cell degranulation at injection site, light microscopy (toluidine blue); assay type: in vivo, rat; settings: for Mast Cell Degranulation, Deg. MC: count of degranulated mast cells
Source text: 4. In other rats, the skin was rapidly removed at the end of the injection period and was fixed in 4% paraformaldehyde for light microscopy (Theoharides et al., Int. Arch. Allergy Immunol. 102:352 (1993)), which is incorporated herein by reference in its entirety. The tissue was then frozen and thin sections (7 μ) were cut using a cryostat (Jung CM 3000, Leica, Luc. Deerfield, Ill.). The sections were stained with acidified (pH<2.5) toluidine blue (Sigma, St. Louis) and all mast cells were counted, by two different researchers blinded to the experimental conditions, at 400× magnification using a Diaphot inverted Nikon microscope (Don Santo, Mass.).

skin mast cells [5] = assay: Effect of drug pretreatment on dye extravasation induced by CRH; assay type: in vivo, rat; settings: for Dye Extravasation (color intensity) by CRH after drug pretreatment: drug 10^-4 M pretreatment, then CRH 10^-4 M, n = 3
Description: as §1, §2

In the case of “Corticotropin-Releasing Hormone (SEEPPISLDLTFHLLREVLEMARAEQLAQQAHSNRKLMEII; ends and bridges not checked; UniProt P06850 154-194, looked up) [CRH, major regulator of the hypothalamic-pituitary-adrenal axis; peptide from Sigma]”, the “Histamine Release (% total), Pleural + Calcium” value (pleural mast cells; 10^-4 M) is reported as 22.06 % total, the “Histamine Release (% total), Pleural - Calcium” value (pleural mast cells; 10^-4 M) is reported as 34.244 % total and the “Histamine Release (% total), Pleural + Calcium” value (pleural mast cells; 10^-5 M) is reported as 2.102 % total. For the same compound, the “Histamine Release (% total), Pleural - Calcium” value (pleural mast cells; 10^-5 M) was 8.579 % total, the “Histamine Release (% total), Pleural + Calcium” value (pleural mast cells; 10^-6 M) was 1.411 % total and the “Histamine Release (% total), Pleural - Calcium” value (pleural mast cells; 10^-6 M) was 4.253 % total. For the same compound, the “histamine release from pleural mast cells” value (pleural mast cells; in words, required absence of extracellular calcium ions) was “induced histamine release”, the “mast cell activation in capsaicin-treated animals” value (skin mast cells [1]) was “unaffected” and the “ultrastructural signs of mast cell activation (loss of electron dense granule content)” value (skin mast cells [2]) was “obvious sign of activation”. The “dose dependence of effect on vasodilation and mast cell activation” value (skin mast cells [3]; 10^-4 M-10^-8 M) was “dose-dependent”, the “skin vascular permeability, as evidenced by dye extravasation” value (skin mast cells [3]; compared with equimolar C48/80 or SP) was “marked increases” and the “Histamine Release (% total), Peritoneal Calcium” value (peritoneal mast cells; 10^-4 M) was 25.5 % total. The “Histamine Release (% total), Peritoneal + Calcium” value (peritoneal mast cells; 10^-4 M) was 6.3 % total, the “Histamine Release (% total), Peritoneal Calcium” value (peritoneal mast cells; 10^-5 M) was 6.9 % total and the “Histamine Release (% total), Peritoneal + Calcium” value (peritoneal mast cells; 10^-5 M) was 1.9 % total. The “Histamine Release (% total), Peritoneal Calcium” value (peritoneal mast cells; 10^-6 M) was 4.9 % total, the “Histamine Release (% total), Peritoneal + Calcium” value (peritoneal mast cells; 10^-6 M) was 2.0 % total and the “effect on peritoneal mast cells (histamine release)” value (peritoneal mast cells; in words) was “largely ineffective”. The “Mast Cell Degranulation, Deg. MC” value (skin mast cells [4]; 10^-4 M) was 426, the “Mast Cell Degranulation, % total deg.” value (skin mast cells [4]; 10^-5 M) was 37 % total and the “Mast Cell Degranulation, Deg. MC” value (skin mast cells [4]; 10^-5 M) was 327. The “Mast Cell Degranulation, % total deg.” value (skin mast cells [4]; 10^-6 M) was 42 % total, the “Mast Cell Degranulation, Deg. MC” value (skin mast cells [4]; 10^-6 M) was 331 and the “Mast Cell Degranulation, % total deg.” value (skin mast cells [4]; 10^-7 M) was 37 % total. The “Mast Cell Degranulation, Deg. MC” value (skin mast cells [4]; 10^-7 M) was 329, the “Mast Cell Degranulation, % total deg.” value (skin mast cells [4]; 10^-8 M) was 32 % total and the “Mast Cell Degranulation, Deg. MC” value (skin mast cells [4]; 10^-8 M) was 254. The “Mast Cell Degranulation, % total deg.” value (skin mast cells [4]; 10^-9 M) was 28 % total, the “Mast Cell Degranulation, Deg. MC” value (skin mast cells [4]; 10^-9 M) was 202 and the “Mast Cell Degranulation, % total deg.” value (skin mast cells [4]; 10^-10 M) was 26 % total. The “Mast Cell Degranulation, Deg. MC” value (skin mast cells [4]; 10^-10 M) was 239.

For `C[C@H](N)C(=O)NCC(=O)N[C@H]1CSSC[C@@H](C(=O)O)NC(=O)[C@H](CO)NC(=O)[C@H]([C@@H](C)O)NC(=O)[C@H](Cc2ccccc2)NC(=O)[C@H]([C@@H](C)O)NC(=O)[C@H](CCCCN)NC(=O)[C@H](Cc2c[nH]c3ccccc23)NC(=O)[C@H](Cc2ccccc2)NC(=O)[C@H](Cc2ccccc2)NC(=O)[C@H](CC(N)=O)NC(=O)[C@H](CCCCN)NC1=O` [Somatostatin, somatostatin], the “Dye Extravasation (color intensity) by CRH after drug pretreatment” value (“Dye Extravasation (color intensity)” below) (skin mast cells [5]) was “more dye extravasation than CRH alone”, the “fluid extravasation, substance alone” value (skin mast cells [3]; 10^-12 M) was “still apparent” and the “fluid extravasation, substance alone” value (skin mast cells [3]; alone, as strong as that seen with CRH) was “significant fluid extravasation”.

`CN(C)CCC=C1c2ccccc2COc2ccccc21` [Doxepin, doxepin] was tested, and the “Dye Extravasation (color intensity)” value (skin mast cells [5]) was “blocked the CRH effect entirely”.

substance P [SP] was tested, and the “Histamine Release (% total), Pleural + Calcium” value (pleural mast cells; 10^-4 M) was 49.346 % total, the “Histamine Release (% total), Pleural - Calcium” value (pleural mast cells; 10^-4 M) was 54.591 % total and the “Histamine Release (% total), Pleural + Calcium” value (pleural mast cells; 10^-5 M) was 22.919 % total. For the same compound, the “Histamine Release (% total), Pleural - Calcium” value (pleural mast cells; 10^-5 M) was 28.871 % total, the “Histamine Release (% total), Pleural + Calcium” value (pleural mast cells; 10^-6 M) was 2.088 % total and the “Histamine Release (% total), Pleural - Calcium” value (pleural mast cells; 10^-6 M) was 8.538 % total. The “Histamine Release (% total), Peritoneal Calcium” value (peritoneal mast cells; 10^-5 M) was 39.5 % total.

In the case of “[D-Phe^12 Nle^21,38, Ala^32 ]rCRH(12-41) [CRH-α]”, the “inhibition of dye extravasation by CRH” value (skin mast cells [5]; antagonist 10^-4 M, CRH 10^-6 M) is reported as “could not inhibit”, the “block of the effect of CRH” value (skin mast cells [5]; plasma extravasation and mast cell degranulation) is reported as “did not block” and the “Mast Cell Degranulation, % total deg.” value (skin mast cells [4]; 10^-4 M) is reported as 25 % total. For the same compound, the “Mast Cell Degranulation, Deg. MC” value (skin mast cells [4]; 10^-4 M) was 28.

For `CC(C)(C)c1ccc(C(O)CCCN2CCC(C(O)(c3ccccc3)c3ccccc3)CC2)cc1` (stereo not drawn) [Terfenadine, terfenadine], the “Dye Extravasation (color intensity)” value (skin mast cells [5]) was “reduced the CRH effect slightly”.

For `OCCOCCN1CCN(C(c2ccccc2)c2ccc(Cl)cc2)CC1` (stereo not drawn) [Hydroxyzine, hydroxyzine], the “Dye Extravasation (color intensity)” value (skin mast cells [5]) was “blocked the CRH effect entirely”.

Source: US6020305A, “Treatment of stress-induced skin disease by corticotropin releasing hormone antagonists and skin mast cell degranulation inhibitors” (Kos Pharmaceuticals, Inc., priority 1996, dated 2000)
